Two compounds from patent US7064139B2, “Method for treating retroviral infections” (Uniroyal Chemical Company, Inc., priority 2001, dated 2006) can be followed below.

≈ marks a conversion by molar mass, not a printed value. Like-named read-outs stand apart in the source and are kept apart here.

One data set deals with HIV-1 (IIIB). The data set is described as follows: microbe, parasite or virus in culture. Format: cell-based. Particulars: Human immunodeficiency virus 1, IIIB, CCRF-CEM; CEM cells, syncytium formation, day four post infection; read-out: EC50 (ug/ml) HIV-1. An outline of the steps:
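Human T-lymphoblast CEM cells at roughly 300,000 cells per ml were infected with about 100 CCID50 of HIV-1 (IIIB). Then 100 μl of the infected suspension went into 200 μl microtiter wells holding 100 μl of 5-fold serial compound dilutions. Inhibition of syncytium formation was scored microscopically on day four post infection, and protection against virus-induced cytopathicity was recorded.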

The subject of a further data set is HIV-2 (ROD). The data set is described as follows: Inhibition of HIV-2 syncytium formation in CEM cells. The format is cell-based. Particulars: for EC50: Human immunodeficiency virus 2, CCRF-CEM, CEM cells, syncytium formation, day four post infection, read-out: EC50 (ug/ml) HIV-2. An outline of the steps: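 Human T-lymphoblast CEM cells, suspended at roughly 300,000 cells per ml of culture medium, were infected with about 100 CCID50 of HIV-2 (ROD). Aliquots of 100 μl of infected cells were placed in 200 μl microtiter wells holding 100 μl of serial 5-fold compound dilutions, and syncytium formation was scored microscopically four days after infection.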

A further data set has as its system Davis strain CMV. The data set is described as follows: Reduction of CMV-induced cytopathicity in HEL cells. Particulars: Human betaherpesvirus 5, 168 h; HEL cells, virus-induced cytopathicity after seven days; read-out: Antiviral EC50 (ug/ml) Davis strain CMV. Format: cell-based, human cytomegalovirus (HCMV). An outline of the steps: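 Confluent HEL cells were infected with 100 PFU/well CMV for 1–2 h, then washed and kept in MEM with 2% FCS and test compound. EC50 is the concentration cutting virus-induced cytopathicity by 50% versus untreated control at day 7. Where cytotoxicity interfered, percent protection at the stated concentration is given.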

The subject of data set [1] is HHV-6 (Z-29 strain, variant B). The data set is described as follows: Anti-HHV-6 activity in MOLT-3 cells (CPE and viral DNA slot blot). Conditions: Homo sapiens. Format: cell-based, human herpes virus type 6 (HHV-6). The protocol: (§1) Two human immature T-lymphoblastoid cell lines were used: HSB-2, obtained from American Type Culture Collection (No. CCL 120.1); and MOLT-3, purchased from ABI Technologies (Columbia, Md., USA). The cells were propagated in RPMI 1640 medium supplemented with 10% fetal calf serum, 2 mM L-glutamine, 0.075% sodium bicarbonate and gentamycin. The cultures were incubated at 37° C. in a humidified and CO2 controlled incubator.
The GS strain of HHV-6 variant A was kindly provided by Dr. R. Gallo, while the Z-29 strain of HHV-6 variant B was obtained from ABI Technologies (Columbia, Md., USA). For preparation of virus stocks, suspensions of HSB-2 cells infected with strain GS, or MOLT-3 cells infected with strain Z-29, were collected at 10–12 days post infection, when the cytopathic effect (CPE) was maximal and cells were >90% virus positive (as determined by immunofluorescence detection of HHV-6 antigens). Since the titer of virus released in culture supernatant was insufficient, virus stocks were used as whole cell suspensions, which were relatively stable when kept in aliquots at −80° C.
Stock solutions of the test compounds or of standards were prepared in dimethylsulfoxide or phosphate buffered saline (PBS). Working dilutions for the antiviral assays were prepared by appropriate dilution of the stock solutions in cell culture medium. The antiherpetic drug Foscarnet (PFA, Foscavir® from Astra, Södertälje, Sweden) was used as standard.
On day 0, the GS and Z-29 strains of HHV-6 were inoculated onto HSB-2 cells and MOLT-3 cells, respectively, at a multiplicity of infection of 0.001 CCID50 (50% cell culture infective doses) per cell, and a cell suspension having a cell density of approximately 5×10^6 cells per ml of culture medium. After two hours of virus adsorption at 37° C., the unadsorbed virus was removed by centrifugation and the infected cells were resuspended and transferred to 48-well microtrays containing the test compounds or control in two- to five-fold dilutions. The final cell density of the suspended cells was approximately 0.8×10^6 cells per ml of culture medium.
(§2) The cells were incubated at 37° C. and subcultivated on days four and seven by two-fold dilution in medium containing fresh test compound or control. On days 10–14, the cells were examined microscopically to score the viral cytopathic effect (CPE) visible by the appearance of large ballooning cells and drug toxicity. Then total DNA was extracted from the infected cells with the QIAamp Blood Kit (Qiagen, Germany), using the manufacturer's instructions, and the DNA extracts were frozen at −20° C. until further analysis.
A digoxigenin labeled probe specific for strain GS or Z-29, was prepared by PCR reaction in the presence of digoxigenin-dUTP, on a 1-μl aliquot of a DNA extract prepared from infected cells showing manifest CPE. The 5′-3′ primer sequence was GCTAGAACG TATTTGCTGCAGAACG (Seq. Id. No. 1) and […] (Seq. Id. No. 2), delimiting a 259 bp sequence within the U67 gene. The amplified product was separated on agarose gel and extracted from the gel fragment with the QIAquick gel extraction kit (Qiagen, Germany) after which the purified probe was frozen at −20° C.
For quantitation of viral DNA in the infected and drug-treated cell cultures, appropriate aliquots of the total DNA extracts (containing 5 μg of total DNA, as determined spectrophotometrically at 260 nm) were boiled during 10 min, and blotted on a nylon membrane (Hybond-N from Amersham) using a Hoefer slot blot apparatus from Pharmacia (Sweden). After UV cross-linking, the membrane was prehybridized during 30 min at 42° C. with DIG (digoxigenin) easy Hyb solution® (Boehringer Mannheim, Germany). Then, the GS- or Z-29 specific digoxigenin labeled probe was added and allowed to hybridize by incubation overnight at 42° C. […]

Another data set concerns MOLT-3 cells. The data set is described as follows: Toxicity in MOLT-3 cells, changes in cell morphology by microscopic examination. The format is cell-based, human. As for the experimental part:
as §1, §2
The antiviral IC50 was calculated by extrapolation and defined as the compound concentration that produced 50% inhibition of virus replication as determined by microscopic examination or quantitation of viral DNA. Toxicity of the compounds was expressed as minimum cytotoxic concentration (MCC), or the lowest compound concentration that caused a microscopically visible alteration in cellular morphology.

`Cc1ccc(C)c(CS(=O)(=O)c2c(C)ccc[n+]2[O-])c1` [Compound 165, 2-[((2,5-dimethylphenyl)methyl)sulfonyl]-3-methylpyridine-1-oxide] came in with a melting point of 171 to 173 °C. For the same compound, the EC50 with HIV-1 (IIIB) worked out at 0.14 µg/mL (≈ 0.48 µM). Moreover, in the data set with HIV-2 (ROD), the EC50 is above 4 µg/mL. Further, the “HIV-2 % Protection” value with HIV-2 (ROD) (protection of CEM cells against virus-induced cytopathicity at the concentration in the previous column) is recorded as 0.0%.

Regarding `Cc1ccc(C)c(CS(=O)(=O)c2cccc[n+]2[O-])c1` [Compound 10, 2-(2,5-Dimethylphenylmethylsulfonyl)pyridine N-oxide], the EC50 stood at 1.8 µg/mL (≈ 6.49 µM) with HIV-1 (IIIB); 5.8 µg/mL (≈ 20.9 µM) in the data set with HIV-2 (ROD); 10 µg/mL (≈ 36.1 µM) in the data set on Davis strain CMV; 12.6 µg/mL (≈ 45.4 µM) in data set [1] (MOLT-3, read-out: EC50 Based on CPE, MOLT-3 cells, Exp. 1); 11.1 µg/mL (≈ 40 µM) in data set [1] (MOLT-3, read-out: EC50 Based on CPE, MOLT-3 cells, Exp. 2); 11.8 µg/mL (≈ 42.5 µM) in data set [1] (MOLT-3, read-out: EC50 Based on CPE, MOLT-3 cells, Exp. 3). Moreover, the EC50 in data set [1] (MOLT-3, read-out: EC50 Based on Viral DMA Detection, MOLT-3 cells, Exp. 1) was determined as 21.8 µg/mL (≈ 78.6 µM); in data set [1] (MOLT-3, read-out: EC50 Based on Viral DMA Detection, MOLT-3 cells, Exp. 2), 9.4 µg/mL (≈ 33.9 µM); in data set [1] (MOLT-3, read-out: EC50 Based on Viral DMA Detection, MOLT-3 cells, Exp. 3), 15.6 µg/mL (≈ 56.2 µM). In addition, the “MIC (concentration causing minimal changes in cell morphology)” value is on record as 50 μg/ml with MOLT-3 cells (Exp. 1), 100 μg/ml with MOLT-3 cells (Exp. 2) and “≧50 μg/ml” in the data set with MOLT-3 cells (Exp. 3).
